Patent US11974983B2 (Duke University, priority 2018, dated 2024)
Where a chain is given by its changes, count along the chain named. Like-named read-outs stand apart in the source and are kept apart here.

Legend:
[1] = tested on: wild-type ERα and ERα LBD mutants Y537S, Y537N, Y537C, D538G; experiment: ERE-luciferase reporter assay in Caov2 and SKBR3 cells (statements on all receptors); type: cell-based
Experimental: ExSite mutagenesis was performed using the corresponding primers as summarized in Table 1 below on a pENTR2B ERα WT construct using Pfu ultra taq polymerase. The primers were PNK phosphorylated. Following PCR amplification, the products were digested with DpnI at 37° C. for 1 hr, followed by overnight ligation at 16° C. Ligated products were transformed into DH5α bacterial cells and grown on kanamycin resistant plates. The pENTR clones were verified by sequencing and then swapped into the pcDNA-DEST vector using the Gateway system (Invitrogen) for expression analysis.
Caov2 ovarian carcinoma cells were grown in RPMI-1640 media (Gibco) supplemented with 8% Fetal Bovine Serum (FBS), Sodium Pyruvate (NaPyr) and non-essential amino acids (NEAA) and passaged every 2-3 days. SKBR3 breast adenocarcinoma cells were grown in DMEM media (Gibco) supplemented with 8% Fetal Bovine Serum (FBS), Sodium Pyruvate (NaPyr) and non-essential amino acids (NEAA) and passaged every 2-3 days. […]
Caov2 cells were co-transfected with the 7X-TK-ERE-TATA luciferase reporter gene (Nagel et al., Endocrinology 142(11): 4721-4728 (2001)) and expression constructs for either wild-type or mutant receptors using Fugene transfection reagent (Promega). […] Following 24 hours of treatment, cells were lysed and the luciferase and β-gal assays were performed as described previously (Norris et al., J Biol Chem 270(39): 22777-22782 (1995)) and the plates were read on the Fusion α-FP HT plate reader (PerkinElmer Life Sciences).
See Jeselsohn et al., Nature Reviews Clinical Oncology 12(10): 573-583 (2015); Jeselsohn et al., Clinical Cancer Research 20(7): 1757-1767 (2014); Robinson et al., Nature Genetics 45(12): 1446-1451(2013); Thomas and Gustafsson, Trends in Endocrinology and Metabolism 26(9): 467-476 (2015); and Toy et al., Nature Genetics 45(12): 1439-1445 (2013). The activity of these mutants was evaluated in a reconstituted estrogen response element (ERE)-luciferase reporter assay in Caov2 ovarian carcinoma cells and SKBR3 breast adenocarcinoma cells. […]

[2] = target: T1, ERα wild-type LBD (Homo sapiens, UniProt P03372, C381S/C417S/C530S/L536S); experiment: X-ray crystal structure of ligand-bound ERα wild-type LBD (L536S)
T1 construct: 6x-His-TEV (N, cleaved yes); made in house; host or cells: E. coli BL21(DE3)
T1 sequence (P03372 311-547 C381S/C417S/C530S/L536S limits assumed): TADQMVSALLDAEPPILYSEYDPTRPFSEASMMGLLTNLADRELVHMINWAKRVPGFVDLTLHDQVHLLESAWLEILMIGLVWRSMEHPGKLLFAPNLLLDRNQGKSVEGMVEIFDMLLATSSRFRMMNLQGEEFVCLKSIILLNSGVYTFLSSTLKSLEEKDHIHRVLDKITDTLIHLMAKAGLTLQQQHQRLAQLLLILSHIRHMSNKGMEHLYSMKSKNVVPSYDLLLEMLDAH
Experimental: (§1) 6x-His-TEV-Estrogen receptor alpha ligand binding domain containing C381S, C417S, C530S with L536S or Y537S mutations were expressed in E. coli BL21(DE3). The L536S mutant stabilizes the wild-type antagonist conformation and Y537S is an activating somatic mutation that has been identified in patients with acquired hormone resistance. Both proteins were purified using Ni-NTA resin, the 6x-His tag was cleaved using tev protease, removed using Ni-NTA resin, and a final purification was performed by passing the protein over a size exclusion column. The main peak was concentrated to 10 mg/mL and flash frozen.
(§2) Hanging drop vapor diffusion was used to crystallize the complexes. The L536S-Laso (lasofoxifene-bound ERα wild-type LBD) complex formed clear hexagonal crystals in 25% PEG 8,000, 200 mM MgCl2, HEPES pH 7.5 after two weeks at room temperature. The Y537S-Laso (lasofoxifene-bound ERα Y537S mutant LBD) complex formed rectangular crystals in 20% PEG 3.35K, 200 mM MgCl2, HEPES pH 6.5 after one week at room temperature.
(§3) Crystals were cryo-protected in 25% glycerol in mother liquor and flash frozen in liquid nitrogen. All x-ray crystallographic data sets were collected at the Advanced Photon Source. The L536S-Laso complex diffracted to 1.8 Å and the Y537S-Laso complex diffracted to 2.1 Å by cc^1/2 over 50%. Phaser was used for molecular replacement with 5UFX as the model. […]

[3] = target: T2, ERα Y537S mutant LBD (Homo sapiens, UniProt P03372, C381S/C417S/C530S/Y537S); experiment: X-ray crystal structure of ligand-bound ERα Y537S mutant LBD
T2 construct: 6x-His-TEV (N, cleaved yes); made in house; host or cells: E. coli BL21(DE3)
T2 sequence (P03372 311-547 C381S/C417S/C530S/Y537S limits assumed): T1 sequence (P03372 311-547 C381S/C417S/C530S/L536S limits assumed) with S226L, Y227S
Experimental: as §1, §2, §3

[4] = in blood, cited from earlier work

Q: With `Oc1ccc2c(c1)CC[C@H](c1ccccc1)[C@@H]2c1ccc(OCCN2CCCC2)cc1` [Lasofoxifene, lasofoxifene] as the molecule, how does the “inhibition of the transcriptional activity of the ERα mutants” value ([1]; all tested ERα LBD mutants, in presence of 1 nM 17-β estradiol, Caov2 and SKBR3 cells) read?
A: effectively inhibited the transcriptional activity of all tested ERα LBD mutants in a dose-response manner

Q: And the “response of mutants to inhibitory action compared with WT receptor” value ([1]; each mutant versus WT receptor)?
A: reduced response

Q: And the “loop between helix 11 and helix 12 in the crystal structure” value [2]?
A: does not disrupt the loop between helix 11 and helix 12

Q: What about the “loop between helix 11 and helix 12 in the crystal structure” value [3] of the same molecule?
A: absent

Q: What about the “Reported Cmax” value ([4]; dose 0.5 mg) of the same molecule?
A: 3.6 ng/mL

Q: And the “Reported Cmax” value ([4]; dose 1 mg)?
A: 6.43 ng/mL
